Reference: patent US7259186B2, “Salts of fenofibric acid and pharmaceutical formulations thereof” (Abbott Laboratories, priority 2002, dated 2007)
Structures can show the parent of a compound that is named as a salt.

Assay: Solid state photostability (ICH light exposure, HPLC recovery)
Format: physicochemical
Conditions: light 300–800 nm under ICH Guideline conditions; lack of degradation = recovery of 95% or greater
From the text: The terms “photostability” and “photostable” are used interchangeably herein and refer to a lack of degradation induced by exposure to light from 300–800 nm under the conditions described in the “Guideline for the Photostability Testing of New Drug Substances and Products” (International Conference on Harmonization. Federal Register 1997; […]:27115–22, which is herein incorporated by reference) (hereinafter referred to as the “Guidelines”). As used herein, the term of “lack of degradation” means a recovery of 95% or greater on average, preferably a recovery of 97% or greater on average and most preferably, a recovery of 99% or greater on average of the novel salts of the present invention after exposure to light from 300–800 nm under the conditions described in the Guidelines described above and pursuant to the assay described in Example 28.
About 1–4 mg of each of fenofibric acid form I, fenofibric acid form II, choline, diethanolamine, tromethamine, sodium, calcium, ethanolamine, meglumine, L-lysine, and piperazine was weighed into separate 4 mL clear glass vials. […]
The vials were sealed with PTFE lined caps, and divided into 2 groups with at least three replicates in each group. […] At the end of the light exposure, all samples and controls were removed and analyzed by HPLC using the conditions shown below in Table 6. […]

Compound	photostability (in words)
CC(C)(Oc1ccc(C(=O)c2ccc(Cl)cc2)cc1)C(=O)O [L-Lysine salt, reference compound]	not photostable
CC(C)(Oc1ccc(C(=O)c2ccc(Cl)cc2)cc1)C(=O)O [Meglumine salt, reference compound]	not photostable
